{"source": "patent US11802132B2", "about": "“Small molecules for inducing selective protein degradation and uses thereof” (DANA-FARBER CANCER INSTITUTE, INC., priority 2018, dated 2023)", "key": {"FKBP12": {"target": "T1, FKBP12 (Homo sapiens, UniProt P62942)", "T1 construct": "the cells used were MCF7 WT; endogenous in cells; host or cells: MCF7 WT", "T1 sequence (P62942 whole entry)": "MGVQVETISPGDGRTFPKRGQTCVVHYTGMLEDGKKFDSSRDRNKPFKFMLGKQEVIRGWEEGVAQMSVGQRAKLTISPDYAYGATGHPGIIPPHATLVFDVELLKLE", "assay": "FKBP12 degradation in MCF7 breast cancer cell line", "assay_type": "cell-based", "conditions": "MCF7 WT; 3 μM; 2, 6, 16 and 24 hours", "excerpt": "(§1) A dimerization assay was used to detect the RPN13 and BRD4 dimerization by RAJQ9 (FIG. 40A). […] New compounds were synthesized in the series using the same conditions as RAJQ9 synthesis (See FIG. 26). It was confirmed in the BRD4 assay that the exemplary BRD4 degrader compounds (RAJQ14, RAJQ14-ester) bind to BRD4 (FIG. 44). It was observed that Myc was lost with BRD4 degraders in the MCF7 breast cancer cell line (FIG. 45). For the results shown in FIG. 45, the cells used were MCF7 WT, the exemplary BRD4 degrader compound was RAJQ14 (at 3 μM concentration), and the time points shown in the assay were 2 hours, 6 hours, 16 hours, and 24 hours. […] For the results shown in FIG. 46, the cells used were MCF7 WT, the drug was the exemplary FKBP12 degrader RAFKBP4 (at 3 μM concentration), and the time points shown in the assay were 2 hours, 6 hours, 16 hours, and 24 hours."}, "RPN13 and BRD4": {"target": "RPN13 and BRD4 (Homo sapiens, UniProt O60885+Q16186)", "sequence (Q16186 whole entry, other chains not shown)": "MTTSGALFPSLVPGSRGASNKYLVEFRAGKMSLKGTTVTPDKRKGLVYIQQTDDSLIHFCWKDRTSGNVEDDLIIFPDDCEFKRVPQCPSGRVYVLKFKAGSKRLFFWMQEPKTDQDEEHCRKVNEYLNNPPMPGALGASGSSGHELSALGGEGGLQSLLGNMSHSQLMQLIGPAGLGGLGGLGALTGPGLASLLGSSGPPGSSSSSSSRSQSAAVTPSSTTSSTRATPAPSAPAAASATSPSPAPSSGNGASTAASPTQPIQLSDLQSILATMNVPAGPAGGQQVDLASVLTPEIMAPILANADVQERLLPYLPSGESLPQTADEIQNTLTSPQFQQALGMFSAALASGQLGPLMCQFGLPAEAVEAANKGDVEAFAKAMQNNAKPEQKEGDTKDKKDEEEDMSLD", "assay": "Dimerization assay of RPN13 and BRD4", "assay_type": "binding", "conditions": "indicated concentrations", "excerpt": "as §1"}}, "note": "“Also recorded” adds a separate entry of the source.", "data": [{"smiles": "CC[C@H](C(=O)N1CCCC[C@H]1C(=O)OC(CCc1ccc(OC)c(OC)c1)c1cccc(OCC(=O)NCCOCCOCCOCCC(=O)NCCOCCN[C@@H](Cc2ccccc2)C(=O)N2C/C(=C\\c3ccc(Cl)c(Cl)c3)C(=O)/C(=C/c3ccc(Cl)c(Cl)c3)C2)c1)c1cc(OC)c(OC)c(OC)c1", "note": "(some centres unmarked) [RAFKBP4]", "values": [{"measurement": "FKBP12 degradation in MCF7 cells", "setting": "FKBP12", "result": "FKBP12 degradation"}]}, {"smiles": "Cc1sc2c(c1C)C(c1ccc(Cl)cc1)=N[C@@H](CC(=O)NCCN1CCN(CCCCCCOc3ccc(C[C@H](N)C(=O)N4C/C(=C\\c5ccc(Cl)c(Cl)c5)C(=O)/C(=C/c5ccc(Cl)c(Cl)c5)C4)cc3)CC1)c1nnc(C)n1-2", "note": "[RAJQ9]", "values": [{"measurement": "RPN13 and BRD4 dimerization", "setting": "RPN13 and BRD4", "result": "can bring these two proteins (RPN13 and BRD4) together; also recorded: can dimerize these two proteins together"}]}]}
